{"source": "the supplement of paper PMC10307832"}
{"compound": "CCOC(=O)CCNc1cc(N2CCc3ccccc3CC2)nc(-c2ccccn2)n1 [GSK-J4] + Cc1cc(Nc2cc(N3CCN(C)CC3)nc(Sc3ccc(NC(=O)C4CC4)cc3)n2)n[nH]1 [Tozasertib] (partner 0.1 µM)", "assay": "relative viability (nuclei count vs DMSO), 5 days (fraction); higher = more cells survive", "details": "first compound 50 µM", "in_short": "(§1)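 Cells from lung cancer lines were seeded into 1536-well plates and, one day later, dosed by pin tool. Treatments were either a single drug or a fixed dose of an anchor drug with five library-drug doses (not always all listed) in √10 steps. After 5 days, nuclei were stained in a one-step fixation (final 0.05% Triton X-100, 1% formaldehyde, 1 ug/ml Hoechst) and counted on 4× images, and relative viability is the treated-to-vehicle nuclei ratio, as the median of duplicate plates.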"}
{"cell line": "NCI-H1623", "relative viability": 0.451}
{"cell line": "PC-14", "relative viability": 0.665}
{"cell line": "NCI-H1666", "relative viability": 0.502}
{"cell line": "EKVX", "relative viability": 0.334}
{"cell line": "NCI-H1755", "relative viability": 0.581}
{"cell line": "NCI-H2023", "relative viability": 0.222}
{"cell line": "HCC-78", "relative viability": 0.348}
{"cell line": "SK-LU-1", "relative viability": 0.276}
{"cell line": "PC-3 [JPC-3]", "relative viability": 0.702}
{"cell line": "LOU-NH91", "relative viability": 0.644}
{"cell line": "NCI-H647", "relative viability": 0.155}
{"cell line": "NCI-H23", "relative viability": 0.249}
{"cell line": "EPLC-272H", "relative viability": 0.172}
{"cell line": "NCI-H2126", "relative viability": 0.733}
{"cell line": "ChaGo-K-1", "relative viability": 0.21}
{"cell line": "HCC-44", "relative viability": 0.688}
{"cell line": "NCI-H1734", "relative viability": 0.259}
{"cell line": "NCI-H650", "relative viability": 0.459}
{"cell line": "LK-2", "relative viability": 0.147}
{"cell line": "NCI-H2228", "relative viability": 0.212}
{"cell line": "NCI-H2342", "relative viability": 0.529}
{"cell line": "NCI-H1944", "relative viability": 0.255}
{"cell line": "HARA", "relative viability": 0.117}
{"cell line": "COR-L23", "relative viability": 0.136}
{"cell line": "SW 900", "relative viability": 0.333}
{"cell line": "NCI-H1648", "relative viability": 0.307}
{"cell line": "NCI-H520", "relative viability": 0.425}
{"cell line": "NCI-H661", "relative viability": 0.413}
{"cell line": "COR-L 105", "relative viability": 0.387}
{"cell line": "NCI-H1650", "relative viability": 0.301}
{"cell line": "NCI-H2009", "relative viability": 0.306}
{"cell line": "SK-MES-1", "relative viability": 0.524}
{"cell line": "SW 1573", "relative viability": 0.177}
{"compound": "CCOC(=O)CCNc1cc(N2CCc3ccccc3CC2)nc(-c2ccccn2)n1 [GSK-J4] + NC(=O)Nc1cc(-c2cccc(F)c2)sc1C(=O)N[C@H]1CCCNC1 [AZD7762] (partner 0.2 µM)", "assay": "relative viability (nuclei count vs DMSO), 5 days (fraction); higher = more cells survive", "details": "first compound 0.5 µM", "in_short": "as §1"}
{"cell line": "NCI-H522", "relative viability": 0.909}
{"cell line": "PC-14", "relative viability": 0.503}
{"cell line": "NCI-H1666", "relative viability": 0.889}
{"cell line": "EKVX", "relative viability": 0.714}
{"cell line": "NCI-H1755", "relative viability": 0.42}
{"cell line": "HCC-78", "relative viability": 0.686}
{"cell line": "PC-3 [JPC-3]", "relative viability": 1.04}
{"cell line": "LOU-NH91", "relative viability": 0.773}
{"cell line": "NCI-H647", "relative viability": 0.596}
{"cell line": "NCI-H23", "relative viability": 0.206}
{"cell line": "EPLC-272H", "relative viability": 0.206}
{"cell line": "NCI-H2126", "relative viability": 1}
{"cell line": "ChaGo-K-1", "relative viability": 0.873}
{"cell line": "HCC-44", "relative viability": 0.95}
{"cell line": "NCI-H1734", "relative viability": 0.513}
{"cell line": "NCI-H650", "relative viability": 0.938}
{"cell line": "LK-2", "relative viability": 0.53}
{"cell line": "NCI-H2342", "relative viability": 0.624}
{"cell line": "NCI-H1944", "relative viability": 0.492}
{"cell line": "HARA", "relative viability": 0.349}
{"cell line": "SW 900", "relative viability": 0.68}
{"cell line": "NCI-H1648", "relative viability": 0.676}
{"cell line": "NCI-H1792", "relative viability": 0.771}
{"cell line": "NCI-H1703", "relative viability": 0.117}
{"compound": "CCOC(=O)CCNc1cc(N2CCc3ccccc3CC2)nc(-c2ccccn2)n1 [GSK-J4] + NC(=O)Nc1cc(-c2cccc(F)c2)sc1C(=O)N[C@H]1CCCNC1 [AZD7762] (partner 0.2 µM)", "assay": "relative viability (nuclei count vs DMSO), 5 days (fraction); higher = more cells survive", "details": "first compound 1.581 µM", "in_short": "as §1"}
{"cell line": "NCI-H522", "relative viability": 0.759}
{"cell line": "PC-14", "relative viability": 0.316}
{"cell line": "NCI-H1666", "relative viability": 0.807}
{"cell line": "NCI-H1755", "relative viability": 0.622}
{"cell line": "HCC-78", "relative viability": 0.702}
{"cell line": "PC-3 [JPC-3]", "relative viability": 0.55}
{"cell line": "LOU-NH91", "relative viability": 0.734}
{"cell line": "NCI-H647", "relative viability": 0.431}
{"cell line": "NCI-H23", "relative viability": 0.388}
{"cell line": "EPLC-272H", "relative viability": 0.23}
{"cell line": "NCI-H2126", "relative viability": 0.928}
{"cell line": "HCC-44", "relative viability": 0.939}
{"cell line": "NCI-H1734", "relative viability": 0.767}
{"cell line": "NCI-H650", "relative viability": 1.04}
{"cell line": "LK-2", "relative viability": 0.29}
{"cell line": "NCI-H2342", "relative viability": 0.525}
{"cell line": "NCI-H1944", "relative viability": 0.64}
{"cell line": "HARA", "relative viability": 0.36}
{"cell line": "SW 900", "relative viability": 0.676}
{"cell line": "NCI-H1792", "relative viability": 0.534}
{"compound": "CCOC(=O)CCNc1cc(N2CCc3ccccc3CC2)nc(-c2ccccn2)n1 [GSK-J4] + NC(=O)Nc1cc(-c2cccc(F)c2)sc1C(=O)N[C@H]1CCCNC1 [AZD7762] (partner 0.2 µM)", "assay": "relative viability (nuclei count vs DMSO), 5 days (fraction); higher = more cells survive", "details": "first compound 5 µM", "in_short": "as §1"}
{"cell line": "NCI-H1666", "relative viability": 0.688}
{"cell line": "EKVX", "relative viability": 0.732}
{"cell line": "NCI-H1755", "relative viability": 0.294}
{"cell line": "HCC-78", "relative viability": 0.874}
{"cell line": "PC-3 [JPC-3]", "relative viability": 0.932}
{"cell line": "LOU-NH91", "relative viability": 0.561}
{"cell line": "NCI-H647", "relative viability": 0.271}
{"cell line": "NCI-H23", "relative viability": 0.254}
{"cell line": "EPLC-272H", "relative viability": 0.162}
{"cell line": "NCI-H2126", "relative viability": 1.05}
{"cell line": "ChaGo-K-1", "relative viability": 0.774}
{"cell line": "HCC-44", "relative viability": 0.962}
{"cell line": "NCI-H1734", "relative viability": 0.333}
{"cell line": "LK-2", "relative viability": 0.663}
{"cell line": "NCI-H2342", "relative viability": 0.531}
{"cell line": "SW 900", "relative viability": 0.597}
{"cell line": "NCI-H1648", "relative viability": 0.925}
{"cell line": "NCI-H1792", "relative viability": 0.325}
{"cell line": "NCI-H1703", "relative viability": 0.113}
{"compound": "CCOC(=O)CCNc1cc(N2CCc3ccccc3CC2)nc(-c2ccccn2)n1 [GSK-J4] + NC(=O)Nc1cc(-c2cccc(F)c2)sc1C(=O)N[C@H]1CCCNC1 [AZD7762] (partner 0.2 µM)", "assay": "relative viability (nuclei count vs DMSO), 5 days (fraction); higher = more cells survive", "details": "first compound 15.81 µM", "in_short": "as §1"}
{"cell line": "NCI-H522", "relative viability": 0.637}
{"cell line": "PC-14", "relative viability": 0.315}
{"cell line": "NCI-H1666", "relative viability": 0.768}
{"cell line": "EKVX", "relative viability": 0.669}
{"cell line": "NCI-H1755", "relative viability": 0.4}
{"cell line": "HCC-78", "relative viability": 0.485}
{"cell line": "PC-3 [JPC-3]", "relative viability": 0.748}
{"cell line": "LOU-NH91", "relative viability": 0.703}
{"cell line": "NCI-H647", "relative viability": 0.386}
{"cell line": "NCI-H23", "relative viability": 0.239}
{"cell line": "EPLC-272H", "relative viability": 0.138}
{"cell line": "NCI-H2126", "relative viability": 0.891}
{"cell line": "ChaGo-K-1", "relative viability": 0.912}
{"cell line": "HCC-44", "relative viability": 1.11}
{"cell line": "NCI-H1734", "relative viability": 0.513}
{"cell line": "NCI-H650", "relative viability": 0.782}
{"cell line": "LK-2", "relative viability": 0.168}
{"cell line": "NCI-H2342", "relative viability": 0.557}
{"cell line": "NCI-H1944", "relative viability": 0.414}
{"cell line": "HARA", "relative viability": 0.218}
{"cell line": "SW 900", "relative viability": 0.57}
{"cell line": "NCI-H1792", "relative viability": 0.674}
{"cell line": "NCI-H1703", "relative viability": 0.119}
{"compound": "CCOC(=O)CCNc1cc(N2CCc3ccccc3CC2)nc(-c2ccccn2)n1 [GSK-J4] + NC(=O)Nc1cc(-c2cccc(F)c2)sc1C(=O)N[C@H]1CCCNC1 [AZD7762] (partner 0.2 µM)", "assay": "relative viability (nuclei count vs DMSO), 5 days (fraction); higher = more cells survive", "details": "first compound 50 µM", "in_short": "as §1"}
{"cell line": "NCI-H522", "relative viability": 0.603}
{"cell line": "PC-14", "relative viability": 0.343}
{"cell line": "NCI-H1666", "relative viability": 0.573}
{"cell line": "EKVX", "relative viability": 0.535}
{"cell line": "NCI-H1755", "relative viability": 0.387}
{"cell line": "HCC-78", "relative viability": 0.583}
{"cell line": "PC-3 [JPC-3]", "relative viability": 0.555}
{"cell line": "LOU-NH91", "relative viability": 0.74}
{"cell line": "NCI-H647", "relative viability": 0.44}
{"cell line": "NCI-H23", "relative viability": 0.265}
{"cell line": "EPLC-272H", "relative viability": 0.147}
{"cell line": "NCI-H2126", "relative viability": 0.89}
{"cell line": "ChaGo-K-1", "relative viability": 0.766}
{"cell line": "HCC-44", "relative viability": 1.05}
{"cell line": "NCI-H1734", "relative viability": 0.423}
{"cell line": "NCI-H650", "relative viability": 0.696}
{"cell line": "LK-2", "relative viability": 0.19}
{"cell line": "NCI-H2342", "relative viability": 0.362}
{"cell line": "NCI-H1944", "relative viability": 0.427}
{"cell line": "HARA", "relative viability": 0.161}
{"cell line": "SW 900", "relative viability": 0.55}
{"cell line": "NCI-H1648", "relative viability": 0.843}
{"cell line": "NCI-H1792", "relative viability": 0.457}
{"cell line": "NCI-H1703", "relative viability": 0.119}
{"compound": "CN1CCC(CC1)OC2=CC(=C(C=C2)NC3=NC=C4C(=N3)N(C(=O)N4C)C5CCCC5)OC [AZ3146] + Cc1nc(NC(=O)N2CCC[C@H]2C(N)=O)sc1-c1ccnc(C(C)(C)C(F)(F)F)c1 [Alpelisib] (partner 2 µM)", "assay": "relative viability (nuclei count vs DMSO), 5 days (fraction); higher = more cells survive", "details": "first compound 0.08 µM", "in_short": "as §1"}
{"cell line": "PC-14", "relative viability": 0.897}
{"cell line": "NCI-H1666", "relative viability": 0.739}
{"cell line": "EKVX", "relative viability": 0.865}
{"cell line": "NCI-H1755", "relative viability": 0.919}
{"cell line": "NCI-H2023", "relative viability": 0.593}
{"cell line": "SK-LU-1", "relative viability": 0.892}
{"cell line": "PC-3 [JPC-3]", "relative viability": 0.914}
{"cell line": "LOU-NH91", "relative viability": 0.662}
{"cell line": "NCI-H647", "relative viability": 1.05}
{"cell line": "NCI-H23", "relative viability": 0.591}
{"cell line": "EPLC-272H", "relative viability": 0.706}
{"cell line": "NCI-H2126", "relative viability": 0.683}
{"cell line": "HCC-44", "relative viability": 0.676}
{"cell line": "NCI-H1734", "relative viability": 0.731}
